Experimental data published in patent US20230181661A1, “MUSHROOM-CONTAINING CHINESE MEDICINE COMPOUND COMPOSITION FOR KELOID SCAR TISSUE AND APPLICATION THEREOF” (ASIA UNIVERSITY, priority 2021, published 2023).

Test system: KFS cells
Assay: Cell metabolic activity assay (MTT assay)
Assay type: cell-based
Details: 6.25 to 100 micromolar concentration
Protocol: KFS cells were obtained from the Biosource Collection and Research Center (BCRC) of the Food Industry Research and Development Institute (Hsinchu, Taiwan). KFS cells were cultured in Dulbecco's modified eagle medium (DMEM) containing 10% FBS, 1.5 g/L sodium bicarbonate, 4 mM L-glutamine, 4.5 g/L glucose, 100 units/mL penicillin G, and 100 μg/mL streptomycin sulfate. All cells were incubated in a humidified environment with 5% CO2 and 37° C. The medium was refreshed every 2 days. KFS cells (2×10^4 cells/well) were seeded in 96-well plates overnight. KFS cells were exposed to different concentrations of a test drug in 100 μL of medium (for example, combination of 10 Chinese medicine ingredients). After 24 hours treatment, 10 μL of 5 mg/mL MTT (3-(4,5-dimethylthiazol-2-yl)-2,5-diphenyltetrazolium bromide) was added to each well. After incubation for 4 hours, cells were washed twice with 1×PBS. Next, 200 μL of dimethyl sulfoxide (DMSO) was added to each well. An absorbance value at 570 nm was determined for each well by using 650 nm as a reference wavelength. Compared with a control group (untreated with reagents), the absorbance may be correlated with the percentage of active cells. The cell metabolic activity rate is calculated as follows: Cell metabolic activity (%)=OD (treatment)/OD (control)×100%.

Compound | growth of keloid fibroblasts
COc1cc(/C=C/C(=O)CC(=O)/C=C/c2ccc(O)c(OC)c2)ccc1O [Curcumin] | inhibit the growth
Oc1ccc(C=Cc2cc(O)cc(O)c2)cc1 [Resveratrol] | inhibit the growth
